Laboratory results: PubChem BioAssay (NCI)
Several values for one entry are separate records, joined by “and”; a condition that tells them apart may be missing. Identical values can stand only once.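 Grown in 96-well plates, cells were treated for 48 hours with each compound at five concentrations. Insufficient inhibition: endpoint recorded as highest concentration tested. GI50 = concentration required for 50% inhibition of growth. TGI marks complete inhibition of growth.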

Experiments:
Test in all cases: NCI tumour cell line growth inhibition, 48 h
[1] = test system: HCT-116 colon
[2] = test system: NCI-H23 lung
[3] = test system: LOX IMVI melanoma
[4] = test system: OVCAR-8 ovarian
[5] = test system: SF-295 CNS
[6] = test system: A498 renal
[7] = test system: HCC-2998 colon
[8] = test system: UO-31 renal
[9] = test system: CCRF-CEM leukemia
[10] = test system: UACC-62 melanoma

## CC(=O)/C(=C\c1c(-c2ccccc2)[nH]c2ccccc12)S(=O)(=O)c1ccccc1
[1]
  GI50: 0.727 µM
  TGI: 2 µM
[2]
  GI50: 1.48 µM
  TGI: 5.52 µM
[3]
  GI50: 1.39 µM
  TGI: 3.27 µM
[4]
  GI50: 2.51 µM
  TGI: 9.89 µM
[5]
  GI50: 2.33 µM
  TGI: 10.2 µM
[6]
  GI50: 5.44 µM
  TGI: 15.9 µM
[7]
  GI50: 1.38 µM
  TGI: 2.78 µM
[8]
  GI50: 1.58 µM
  TGI: 3.54 µM
[9]
  GI50: 1.4 µM
  TGI: 4.78 µM
[10]
  GI50: 0.975 µM
  TGI: 4.46 µM

## C#CC(=O)OCC#CCOC(=O)C#C
[1]
  TGI: 35.7 µM
[2]
  TGI: 55 µM
[3]
  TGI: 2.63 µM
[4]
  TGI: 96 µM
[5]
  TGI: > 100 µM
[6]
  TGI: > 100 µM
[7]
  TGI: 39.6 µM
[8]
  TGI: 23.1 µM
[9]
  TGI: 35.4 µM
[10]
  TGI: 56.7 µM

## Oc1c(CNCCNCc2cc(Cl)cc(Cc3ccccc3)c2O)cc(Cl)cc1Cc1ccccc1
[1]
  GI50: 0.398 µM
  TGI: 13.2 µM
[2]
  GI50: 0.668 µM
  TGI: 17.6 µM
[3]
  GI50: 0.136 µM
  TGI: 1.66 µM
[4]
  GI50: 0.474 µM
  TGI: > 100 µM
[5]
  GI50: 0.448 µM
  TGI: 4.1 µM
[6]
  GI50: 1.22 µM
  TGI: 8.88 µM
[7]
  GI50: 0.451 µM
  TGI: 10.1 µM
[8]
  GI50: 0.128 µM
  TGI: 1.34 µM
[9]
  GI50: 0.127 µM
  TGI: 24.4 µM
[10]
  GI50: 0.436 µM
  TGI: 10.9 µM

## CNCCCn1c2c(c3ccc(F)cc3c1=O)C(=O)c1cc(OC)cnc1-2
[1]
  GI50: 0.143 µM
  TGI: 0.617 µM
[2]
  GI50: 0.312 µM
  TGI: 1.97 µM
[3]
  GI50: 0.142 µM
  TGI: 0.375 µM
[4]
  GI50: 0.193 µM
  TGI: 1.12 µM
[5]
  GI50: 0.185 µM
  TGI: 0.78 µM
[6]
  GI50: 0.369 µM
  TGI: 1.61 µM
[7]
  GI50: 1.15 µM
  TGI: 4.17 µM
[8]
  GI50: 0.13 µM
  TGI: 0.809 µM
[9]
  GI50: 0.255 µM
  TGI: 10.6 µM
[10]
  GI50: 0.608 µM
  TGI: 2.68 µM

## O=C(c1ccccc1O)c1[nH]c(Cl)c(Cl)c1-n1c(C(=O)c2ccccc2O)cc(Cl)c1Cl
[1]
  GI50: 0.336 µM and 0.344 µM
  TGI: 4.76 µM and 10.4 µM
[2]
  GI50: 0.418 µM and 0.409 µM
  TGI: 6.8 µM and 11.7 µM
[3]
  GI50: 2.72 µM and 2.48 µM
  TGI: 10.6 µM and 10.7 µM
[4]
  GI50: 0.643 µM and 0.558 µM
  TGI: 10.9 µM and 15.8 µM
[5]
  GI50: 1.05 µM and 0.792 µM
  TGI: 4.16 µM and 3.38 µM
[6]
  GI50: 0.231 µM and 0.332 µM
  TGI: 2.04 µM and 2.75 µM
[7]
  GI50: 0.994 µM and 0.931 µM
  TGI: 12.7 µM and 11.6 µM
[8]
  GI50: 2.6 µM and 2.02 µM
  TGI: 11.4 µM and 6.95 µM
[9]
  GI50: 0.467 µM and 0.382 µM
  TGI: 16.9 µM and 12.2 µM
[10]
  GI50: 0.495 µM and 0.361 µM
  TGI: 3.34 µM and 2.09 µM

## CC1(C)N=C(N)N=C(N)N1c1ccc(Cl)c(Cl)c1
[1]
  GI50: 0.0549 µM
  TGI: > 100 µM
[2]
  GI50: 0.453 µM
  TGI: > 100 µM
[3]
  GI50: 0.0879 µM
  TGI: > 100 µM
[4]
  GI50: 0.202 µM
  TGI: > 100 µM
[5]
  GI50: 0.304 µM
[6]
  GI50: 11.2 µM
  TGI: > 100 µM
[7]
  GI50: 0.508 µM
  TGI: > 40.7 µM
[8]
  GI50: 13.5 µM
  TGI: > 100 µM
[9]
  GI50: 3.39 µM
  TGI: > 52.3 µM
[10]
  GI50: 0.612 µM
  TGI: > 100 µM

## COc1cc(C2C3=C(COC3=O)Nc3cc4c(cc32)OCO4)cc2c1OCO2 (centres undefined)
[1]
  GI50: 0.0905 µM
  TGI: 3.49 µM
[2]
  GI50: 0.0757 µM
[3]
  GI50: 0.0801 µM
  TGI: > 100 µM
[4]
  GI50: 0.102 µM
  TGI: > 100 µM
[5]
  GI50: 0.0299 µM
[6]
  GI50: 0.0276 µM
  TGI: 0.12 µM
[7]
  GI50: 0.109 µM
[8]
  GI50: 0.332 µM
  TGI: > 100 µM
[9]
  GI50: 0.0698 µM
  TGI: > 100 µM
[10]
  GI50: 0.0519 µM
  TGI: > 100 µM

## CC/C=C\C[C@H](O)C/C=C1/C(=O)C=C[C@@H]1C/C=C\CCCC(=O)NC
[1]
  GI50: 0.612 µM
  TGI: 2.04 µM
[2]
  GI50: 1.82 µM
  TGI: 4.22 µM
[3]
  GI50: 0.317 µM
  TGI: 1.43 µM
[4]
  GI50: 2.4 µM
  TGI: 10.2 µM
[5]
  GI50: 2.44 µM
  TGI: 6.08 µM
[6]
  GI50: 2.34 µM
  TGI: 5.12 µM
[7]
  GI50: 1.82 µM
  TGI: 3.35 µM
[8]
  GI50: 1.52 µM
  TGI: 3.35 µM
[9]
  GI50: 1.47 µM
  TGI: 8.13 µM
[10]
  GI50: 1.37 µM
  TGI: 3.5 µM

## N=C(N)SCc1ccc([N+](=O)[O-])cc1[N+](=O)[O-]
[1]
  GI50: 3.53 µM
  TGI: 13.6 µM
[2]
  GI50: 10.6 µM
  TGI: 36.2 µM
[3]
  GI50: 8.66 µM
  TGI: 25 µM
[4]
  GI50: 14.3 µM
  TGI: 75.7 µM
[5]
  GI50: 31.3 µM
  TGI: > 100 µM
[6]
  GI50: 29.9 µM
  TGI: 66.6 µM
[7]
  GI50: 6.05 µM
  TGI: 18.1 µM
[8]
  GI50: 3.21 µM
  TGI: 14.3 µM
[9]
  GI50: 3.77 µM
  TGI: > 100 µM
[10]
  GI50: 11.3 µM
  TGI: 25.3 µM

## CN(C)CCOc1ccc(-c2cc(-c3ccc4c(c3)CC/C4=N\O)c(-c3ccncc3)o2)cc1
[1]
  GI50: 1.29 µM
  TGI: 4.5 µM
[2]
  GI50: 3.21 µM
  TGI: 7.12 µM
[3]
  GI50: 1.66 µM
  TGI: 5.63 µM
[4]
  GI50: 3.97 µM
  TGI: 9 µM
[5]
  GI50: 3.8 µM
  TGI: 7.68 µM
[6]
  GI50: 4.22 µM
  TGI: 8.17 µM
[7]
  GI50: 5.5 µM
  TGI: 9.5 µM
[8]
  GI50: 5.21 µM
  TGI: 9.47 µM
[9]
  GI50: 3.76 µM
  TGI: 13.3 µM
[10]
  GI50: 0.0906 µM
  TGI: 3.79 µM

## COc1ccc(Oc2cc(NCCC(F)(F)F)c3ncc(-c4ccc(C(=O)NC5CC5)c(C)c4)n3n2)c(F)c1F
[1]
  GI50: < 0.01 µM
  TGI: > 54.5 µM
[2]
  GI50: 4.16 µM
  TGI: > 100 µM
[3]
  GI50: 0.125 µM
  TGI: > 100 µM
[4]
  GI50: 0.0738 µM
  TGI: 26.9 µM
[5]
  GI50: 0.638 µM
  TGI: > 65.3 µM
[6]
  TGI: 25.7 µM
[7]
  GI50: 12.3 µM
  TGI: > 100 µM
[8]
  GI50: 0.355 µM
  TGI: > 53.6 µM
[9]
  TGI: > 100 µM
[10]
  GI50: 0.681 µM
  TGI: 85.5 µM

## Cc1cnc(SCCN2CCN(C)CC2)nc1-c1cc2ccccc2s1
[1]
  TGI: 26.8 µM
[2]
  TGI: 34.3 µM
[3]
  TGI: 18.6 µM
[4]
  TGI: 25.8 µM
[5]
  TGI: 21.2 µM
[6]
  TGI: 29.8 µM
[7]
  TGI: 26.9 µM
[8]
  TGI: 20.8 µM
[9]
  TGI: 14.2 µM
[10]
  TGI: 32.2 µM

## Cc1cc(O)cc(C)c1/C=C/c1cncc(C(=O)OC(C)(C)C)c1
[1]
  GI50: 14.1 µM
  TGI: > 25 µM
[2]
  GI50: > 20 µM
  TGI: > 25 µM
[3]
  GI50: 16 µM
  TGI: > 25 µM
[4]
  GI50: 18 µM
  TGI: > 25 µM
[5]
  GI50: 19.8 µM
  TGI: > 25 µM
[6]
  GI50: 8.09 µM
  TGI: > 25 µM
[7]
  GI50: > 25 µM
  TGI: > 25 µM
[8]
  GI50: 8.34 µM
  TGI: > 25 µM
[9]
  GI50: 3.13 µM
  TGI: > 25 µM
[10]
  GI50: 17 µM
  TGI: > 25 µM

## Oc1c2c(c(O)c3ccccc13)C1(N=N2)c2ccccc2Oc2ccccc21
[1]
  TGI: 17.7 µM
[2]
  TGI: > 100 µM
[3]
  TGI: 7.31 µM
[4]
  TGI: 11.1 µM
[5]
  TGI: 33.3 µM
[6]
  TGI: 35.7 µM
[7]
  TGI: 38.7 µM
[8]
  TGI: 23.3 µM
[9]
  TGI: 29.9 µM
[10]
  TGI: 25.1 µM
